According to patent US5747235A, “Silver halide light sensitive emulsion layer having enhanced photographic sensitivity” (Eastman Kodak Company, priority 1996, dated 1998):

Key:
[1] = Example 14: blue light sensitivity and fog after post-exposure bath, emulsion T-1; conditions: bathed after exposure
Experimental: Samples of the coating were exposed to a xenon flash of 10^-3 sec duration filtered through a 2.0 neutral density filter, Kodak Wratten filters 35 and 38A, and a step wedge ranging in density from 0 to 3 density units in 0.15 density steps. These conditions allowed only blue light to expose the coatings. After exposure, one sample of the coating was subjected to each of the following treatments:
B. Post-exposure bath for 15 min in a solution of 5.4×10^-4 M NaBr and 3.0'10^-6 M S-3 at pH=6.0. (Bath 1)
Post-exposure bath for 15 min in a solution of 5.4×10^-4 M NaBr and 1.5×10^-5 M S-3 at pH=6.0. (Bath 2)
The coatings subjected to the post-exposure baths were then rinsed to remove excess solution and all coatings were developed together for 6 min in Kodak Rapid X-ray Developer (KRX). Relative sensitivity to blue light, Sblue, was evaluated at a density of 0.15 units above fog.

[2] = Example 2: photographic speed and fog, 365 nm exposure, acids vs corresponding esters, emulsion T-1; parameters: Fog: unit not given here; conditions: for Fog / S365: undyed; for S365: control=100
Experimental: This chemically sensitized emulsion was then used to prepare the experimental coating variations indicated in Table I. All of the experimental coating variations in Table I contained the hydroxybenzene 2,4-disulfocatechol (HB3) at a concentration of 13 mmole/mole Ag, added to the melt before the addition of any further addenda. The fragmentable electron donor compounds as indicated in Table I were added from an aqueous potassium bromide solution, or from a methanol solution, before additional water, gelatin, and surfactant were added to the emulsion melts.
For photographic evaluation, each of the coating strips was exposed for 0.1 sec to a 365 nm emission line of a Hg lamp filtered through a Kodak Wratten filter number 18A and a step wedge ranging in density from 0 to 4 density units in 0.2 density steps. The exposed film strips were developed for 6 min in Kodak Rapid X-ray Developer (KRX). S365, relative sensitivity at 365 nm, was evaluated at a density of 0.2 units above fog.
The coatings described in Table II all contain the hydroxybenzene, 2,4-disulfocatechol (HB3) at a concentration of 13 mmole/mole Ag, added to the melt before any further addenda.

In the case of `CCSCCN(c1ccc(C)cc1)[C@@H](C)C(=O)[O-].[Na+]` [Compound S-3, N-(4-Methylphenyl)-N-(2-ethylthio-ethyl)alanine sodium salt], the “sensitivity gain relative to unbathed coating” value [1] is reported as ~2 X, the Fog ([2]; 0.00220 x10^-3 mole/mole Ag) is reported as 0.07 and the S365 ([2]; 0.00220 x10^-3 mole/mole Ag) is reported as 110. For the same compound, the Fog ([2]; 0.00700 x10^-3 mole/mole Ag) was 0.06, the S365 ([2]; 0.00700 x10^-3 mole/mole Ag) was 120 and the Fog ([2]; 0.02200 x10^-3 mole/mole Ag) was 0.11. It also gave an S365 ([2]; 0.02200 x10^-3 mole/mole Ag) of 141, a Fog ([2]; 0.07000 x10^-3 mole/mole Ag) of 0.57 and a Fog ([2]; 0.22000 x10^-3 mole/mole Ag) of 1.24. For the same compound, the “speed and fog change” value ([2]; undyed T-1 emulsion) was “both speed and fog increases”.
